Reference: BindingDB's records for doi:10.1111/j.1747-0285.2009.00902.x (Institut Des BiomolÉCules Max Mousseron (Ibmm), 2009)
Where “and” joins values, the source holds several entries; their conditions need not be identical. Equal entries are not always repeated.

Target: Carbonic anhydrase 6 (Homo sapiens, UniProt P23280)
Experiment: Enzyme Inhbition Assay
Conditions: pH 7.5; 20 °C
Excerpt: Inhibition assay using carbonic anhydrases with an SX.18MV-R, a stopped-flow instrument from Applied Photophysics was used for assaying the CA catalyzed CO2 hydration activity.

Carbonic anhydrase 6, sequence (P23280 whole entry): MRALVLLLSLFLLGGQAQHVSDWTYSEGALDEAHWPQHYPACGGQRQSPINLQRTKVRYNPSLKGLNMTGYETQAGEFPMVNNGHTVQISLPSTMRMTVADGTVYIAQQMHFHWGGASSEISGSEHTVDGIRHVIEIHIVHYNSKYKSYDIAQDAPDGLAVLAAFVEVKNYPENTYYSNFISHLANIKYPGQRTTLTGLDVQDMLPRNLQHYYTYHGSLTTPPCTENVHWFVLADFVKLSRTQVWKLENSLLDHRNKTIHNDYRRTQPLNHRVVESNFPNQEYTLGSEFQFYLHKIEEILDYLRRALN

Row | Ki | Compound
1 | 3.5 nM and 5.1 nM and 0.56 nM | NS(=O)(=O)c1ccc(NC2OCC(O)C(O)C2O)cc1 (configuration not stated)
2 | 3.4 nM and 13 nM | CC1OC(Nc2ccc(S(N)(=O)=O)cc2)C(O)C(O)C1O (configuration not stated)
